Assay results taken from patent US20260034094A1, “COMPOSITIONS AND METHODS FOR INDUCING FERROPTOSIS” (Kojin Therapeutics, Inc., priority 2022, published 2026).

Assays:
human recombinant GCL = human recombinant GCL (Homo sapiens (Human), UniProt P48506); assay: GCL enzyme profiling assay (ADP-Glo luminescence); assay type: biochemical; conditions: human recombinant GCL, ADP-Glo; read-out: GCL IC50
Procedure, shortened: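 IC50 fitted by four-parameter logistic to luminescent ADP formation (ADP-Glo). Reaction at room temperature in HEPES pH 7.5 with 30 mM MgCl2, 0.2% F-127, 1% DMSO; 5 nM GCL and 0.6 mM ATP preincubated 1 h before adding 1 mM glutamate plus 1.2 mM α-aminobutyrate for 2 h.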

RKN cells = assay: RKN cell profiling assay (cell viability, CellTiter-Glo); assay type: cell-based; conditions: cell viability, read-out: Cell Killing EC50
Procedure, shortened: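 Viability read by CellTiter-Glo luminescence after 96 h compound exposure (0.5% DMSO final) of cells plated at 1,000/well in 10% FBS F-12 and allowed 24 h attachment. Four-parameter fits gave EC50; rescue arms used ferrostatin-1, 1.5 μM, present from seeding.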

human recombinant GCL, sequence (P48506 whole entry): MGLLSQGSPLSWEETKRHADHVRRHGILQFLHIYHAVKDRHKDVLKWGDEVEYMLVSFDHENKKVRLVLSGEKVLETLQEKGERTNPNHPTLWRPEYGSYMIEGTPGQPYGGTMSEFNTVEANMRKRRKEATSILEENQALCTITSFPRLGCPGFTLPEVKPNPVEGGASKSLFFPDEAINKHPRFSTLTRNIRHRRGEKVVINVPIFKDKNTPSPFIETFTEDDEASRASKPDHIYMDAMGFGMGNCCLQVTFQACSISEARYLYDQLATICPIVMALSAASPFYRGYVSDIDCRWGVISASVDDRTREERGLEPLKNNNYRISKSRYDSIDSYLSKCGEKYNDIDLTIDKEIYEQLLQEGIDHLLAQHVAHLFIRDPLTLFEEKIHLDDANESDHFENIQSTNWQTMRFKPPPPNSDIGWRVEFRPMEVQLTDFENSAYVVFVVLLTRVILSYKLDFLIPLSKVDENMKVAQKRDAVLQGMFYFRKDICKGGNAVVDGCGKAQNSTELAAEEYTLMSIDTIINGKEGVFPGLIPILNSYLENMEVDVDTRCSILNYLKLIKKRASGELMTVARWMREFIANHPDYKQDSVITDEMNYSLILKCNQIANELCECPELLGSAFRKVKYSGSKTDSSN

| IC50 (human recombinant GCL) [µM] | Compound | EC50 (RKN cells) [µM] |
| --- | --- | --- |
| 20 to 2000 | CC1(CCCS(=N)(=O)CC[C@H](N)C(=O)O)COC1 (stereo partly shown) [Compound 312] | < 1000 |
| 20 to 2000 | COCC(CCS(=N)(=O)CC[C@H](N)C(=O)O)C(F)(F)F (stereo partly shown) [Compound 319] | < 1000 |
| 20 to 2000 | COCC(C)(C)CCS(=N)(=O)CC[C@H](N)C(=O)O (stereo partly shown) [Compound 321] | < 1000 |
| ≤ 20 | N=S(=O)(CC[C@H](N)C(=O)O)CCC(O)(c1ccc(OC(F)(F)F)cc1)C(F)(F)F (stereo partly drawn) [Compound 330, (2S)-2-amino-4-(4,4,4-trifluoro-3-hydroxy-3-(4-(trifluoromethoxy)phenyl)butylsulfonimidoyl)butanoic acid] | ≥ 1000 |
| ≤ 20 | N=S(=O)(CC[C@H](N)C(=O)O)CCC(O)(c1cc2ccccc2cn1)C(F)(F)F (stereo partly drawn) [Compound 331, (2S)-2-amino-4-(4,4,4-trifluoro-3-hydroxy-3-(isoquinolin-3-yl)butylsulfonimidoyl)butanoic acid] | < 1000 |
| 20 to 2000 | N[C@@H](CCS(=O)(=O)CCC(O)(c1cc2ccccc2cn1)C(F)(F)F)C(=O)O (stereo partly drawn) [Compound 332, (2S)-2-amino-4-((4,4,4-trifluoro-3-hydroxy-3-(isoquinolin-3-yl)butyl)sulfonyl)butanoic acid] | ≥ 1000 |
| 20 to 2000 | N=S(=O)(CC[C@H](N)C(=O)O)CCC(O)(C(=O)O)C(F)(F)F (stereo partly shown) [Compound 333] | ≥ 1000 |
| ≤ 20 | N=S(=O)(CC[C@H](N)C(=O)O)CCC(O)(c1ccc(Oc2ccccc2)cc1)C(F)(F)F (stereo partly shown) [Compound 334] | < 1000 |
| 20 to 2000 | N=S(=O)(CCCC(O)(c1ccc(-c2ccccc2)cc1)C(F)(F)F)CC[C@H](N)C(=O)O (stereo partly shown) [Compound 335] | ≥ 1000 |
| ≤ 20 | N=S(=O)(CC[C@H](N)C(=O)O)CCC(O)(c1ccc(C(F)(F)F)cc1)C(F)(F)F (stereo partly shown) [Compound 338] | ≥ 1000 |
| 20 to 2000 | N=S(=O)(CC[C@H](N)C(=O)O)CCC(O)(c1nc2ccccc2[nH]1)C(F)(F)F (stereo partly shown) [Compound 343] | < 1000 |
| ≤ 20 | N=S(=O)(CC[C@H](N)C(=O)O)CCC(O)(c1nccs1)C(F)(F)F (stereo partly shown) [Compound 344] | < 1000 |
| ≤ 20 | N=[S@@](=O)(CC[C@H](N)C(=O)O)CC[C@@](O)(c1ccccc1)C(F)(F)F [Compound 347, (S)-2-amino-4-((R,3R)-4,4,4-trifluoro-3-hydroxy-3-phenylbutylsulfonimidoyl)butanoic acid] | < 1000 |
| ≤ 20 | N=[S@@](=O)(CC[C@H](N)C(=O)O)CC[C@](O)(c1ccccc1)C(F)(F)F [Compound 348, (S)-2-amino-4-((R,3S)-4,4,4-trifluoro-3-hydroxy-3-phenylbutylsulfonimidoyl)butanoic acid] | < 1000 |
| 20 to 2000 | N=S(=O)(CC[C@H](N)C(=O)O)CCC(O)(C1CC1)C(F)(F)F (stereo partly drawn) [Compound 349, (2S)-2-amino-4-(3-cyclopropyl-4,4,4-trifluoro-3-hydroxybutylsulfonimidoyl)butanoic acid] | < 1000 |
| ≤ 20 | N=S(=O)(CC[C@H](N)C(=O)O)CCC(O)(c1ccccn1)C(F)(F)F (stereo partly drawn) [Compound 350, (2S)-2-amino-4-(4,4,4-trifluoro-3-hydroxy-3-(pyridin-2-yl)butylsulfonimidoyl)butanoic acid] | < 1000 |
| ≤ 20 | N[C@@H](CCS(=O)(=O)CCC(O)(c1ccccn1)C(F)(F)F)C(=O)O (stereo partly drawn) [Compound 351, (2S)-2-amino-4-((4,4,4-trifluoro-3-hydroxy-3-(pyridin-2-yl)butyl)sulfonyl)butanoic acid] | ≥ 1000 |
| 20 to 2000 | CCC(O)(CCS(=N)(=O)CC[C@H](N)C(=O)O)C(F)(F)F (stereo partly shown) [Compound 352] | < 1000 |
| ≤ 20 | CC(C)C(O)(CCS(=N)(=O)CC[C@H](N)C(=O)O)C(F)(F)F (stereo partly shown) [Compound 353] | ≥ 1000 |
| 20 to 2000 | N=S(=O)(CC[C@H](N)C(=O)O)CCC(O)(Cc1ccccc1)C(F)(F)F (stereo partly shown) [Compound 354] | ≥ 1000 |
| 20 to 2000 | N=S(=O)(CC[C@H](N)C(=O)O)CCC(O)(C1CCCCC1)C(F)(F)F (stereo partly shown) [Compound 355] | ≥ 1000 |
| 20 to 2000 | N=S(=O)(CC[C@H](N)C(=O)O)CCC(O)(C1CCCC1)C(F)(F)F (stereo partly shown) [Compound 356] | ≥ 1000 |
| ≤ 20 | N=S(=O)(CC[C@H](N)C(=O)O)CCC(O)(C1CCC1)C(F)(F)F (stereo partly shown) [Compound 357] | ≥ 1000 |
| ≤ 20 | N=S(=O)(CC[C@H](N)C(=O)O)CCC(O)(c1ncc(-c2ccccc2)[nH]1)C(F)(F)F (stereo partly shown) [Compound 358] | < 1000 |
| 20 to 2000 | N=S(=O)(CC[C@H](N)C(=O)O)CCC(O)(C(F)(F)F)C12CC(C1)C2 (stereo partly shown) [Compound 359] | ≥ 1000 |
| ≤ 20 | N=S(=O)(CC[C@H](N)C(=O)O)CCC(O)(c1cc2cc[nH]c2cn1)C(F)(F)F (stereo partly shown) [Compound 360] | < 1000 |
| 20 to 2000 | N=S(=O)(CC[C@H](N)C(=O)O)CCC(O)(c1cccnc1)C(F)(F)F (stereo partly shown) [Compound 361] | ≥ 1000 |

| IC50 (human recombinant GCL) [µM] | Compound | EC50 (RKN cells) [µM] |
| --- | --- | --- |
| 20 to 2000 | N=S(=O)(CC[C@H](N)C(=O)O)CCC(O)(c1ccncc1)C(F)(F)F (stereo partly shown) [Compound 362] | ≥ 1000 |
| 20 to 2000 | N=S(=O)(CC[C@H](N)C(=O)O)CCC(O)(c1ncccn1)C(F)(F)F (stereo partly shown) [Compound 363] | < 1000 |
| 20 to 2000 | N=S(=O)(CC[C@H](N)C(=O)O)CCC(O)(c1ccnc(C(F)(F)F)c1)C(F)(F)F (stereo partly shown) [Compound 364] | ≥ 1000 |
| 20 to 2000 | N=S(=O)(CC[C@H](N)C(=O)O)CCC(O)(c1ccc(C(F)(F)F)nc1)C(F)(F)F (stereo partly shown) [Compound 365] | ≥ 1000 |
| 20 to 2000 | N=S(=O)(CC[C@H](N)C(=O)O)CCC(O)(c1ccon1)C(F)(F)F (stereo partly shown) [Compound 368] | < 1000 |
| 20 to 2000 | N[C@@H](CCS(=O)(=O)CCC(O)(c1ccon1)C(F)(F)F)C(=O)O (stereo partly shown) [Compound 369] | ≥ 1000 |
| ≤ 20 | N=S(=O)(CC[C@H](N)C(=O)O)CCC(O)(c1ccsn1)C(F)(F)F (stereo partly shown) [Compound 370] | < 1000 |
| ≤ 20 | N[C@@H](CCS(=O)(=O)CCC(O)(c1ccsn1)C(F)(F)F)C(=O)O (stereo partly shown) [Compound 371] | < 1000 |
| ≤ 20 | N=S(=O)(CC[C@H](N)C(=O)O)CCC(O)(c1ccc(Oc2ccccc2)cn1)C(F)(F)F (stereo partly shown) [Compound 372] | < 1000 |
| 20 to 2000 | N=S(=O)(CC[C@H](N)C(=O)O)CCC(O)(c1ncc2ccccc2n1)C(F)(F)F (stereo partly shown) [Compound 374] | < 1000 |
| ≤ 20 | N=S(=O)(CC[C@H](N)C(=O)O)CCC(O)(c1nsc2ccccc12)C(F)(F)F (stereo partly shown) [Compound 375] | < 1000 |
| ≤ 20 | N=S(=O)(CC[C@H](N)C(=O)O)CCC(O)(c1cc(-c2ccccc2)sn1)C(F)(F)F (stereo partly shown) [Compound 376] | < 1000 |
| ≤ 20 | N[C@@H](CCS(=O)(=O)CCC(O)(c1cc(-c2ccccc2)sn1)C(F)(F)F)C(=O)O (stereo partly shown) [Compound 377] | ≥ 1000 |
| ≤ 20 | N=S(=O)(CC[C@H](N)C(=O)O)CCC(O)(c1cc(-c2ccccc2)on1)C(F)(F)F (stereo partly shown) [Compound 378] | < 1000 |
| ≤ 20 | N=S(=O)(CC[C@H](N)C(=O)O)CCC(O)(C1CCN(c2ccc(Cl)cc2Cl)CC1)C(F)(F)F (stereo partly shown) [Compound 379] | < 1000 |
| ≤ 20 | N=S(=O)(CC[C@H](N)C(=O)O)CCC(O)(c1ccc(Oc2ccc(Cl)cc2Cl)cn1)C(F)(F)F (stereo partly shown) [Compound 380] | < 1000 |
| ≤ 20 | N=S(=O)(CCC(C1CCCCC1)C(F)(F)F)CC[C@H](N)C(=O)O (stereo partly drawn) [Compound 381, (2S)-2-amino-4-(3-cyclohexyl-4,4,4-trifluorobutylsulfonimidoyl)butanoic acid] | ≥ 1000 |
| ≤ 20 | N=S(=O)(CCC(C1CCCC1)C(F)(F)F)CC[C@H](N)C(=O)O (stereo partly shown) [Compound 382] | ≥ 1000 |
| ≤ 20 | N=S(=O)(CCC(C1CCC1)C(F)(F)F)CC[C@H](N)C(=O)O (stereo partly shown) [Compound 383] | ≥ 1000 |
| ≤ 20 | N=S(=O)(CCC(C(F)(F)F)C12CC(C1)C2)CC[C@H](N)C(=O)O (stereo partly shown) [Compound 384] | ≥ 1000 |
| 20 to 2000 | N=S(=O)(CC[C@H](N)C(=O)O)CCC1(c2cccc(F)c2)CCC1 (stereo partly drawn) [Compound 385, (2S)-2-amino-4-[2-[1-(3-fluorophenyl)cyclobutyl]ethylsulfonimidoyl]butanoic acid] | < 1000 |
| ≤ 20 | N=S(=O)(CCC(c1ccc2[nH]ncc2c1)C(F)(F)F)CC[C@H](N)C(=O)O (stereo partly drawn) [Compound 386, (2S)-2-amino-4-(4,4,4-trifluoro-3-(1H-indazol-5-yl)butylsulfonimidoyl)butanoic acid] | < 1000 |
| 20 to 2000 | N=S(=O)(CC[C@H](N)C(=O)O)CCC1(c2ccccn2)CCC1 (stereo partly drawn) [Compound 387, (2S)-2-amino-4-(2-(1-(pyridin-2-yl)cyclobutyl)ethylsulfonimidoyl)butanoic acid] | < 1000 |
| ≤ 20 | N=S(=O)(CCC(c1ccc(-c2ccccc2)cc1O)C(F)(F)F)CC[C@H](N)C(=O)O (stereo partly drawn) [Compound 391, (2S)-2-amino-4-(4,4,4-trifluoro-3-(3-hydroxy-[1,1′-biphenyl]-4-yl)butylsulfonimidoyl)butanoic acid] | < 1000 |
| ≤ 20 | N=S(=O)(CC[C@H](N)C(=O)O)CCC1(c2ccc3[nH]ncc3c2)CCC1 (stereo partly shown) [Compound 394] | ≥ 1000 |
| 20 to 2000 | N=S(=O)(CC[C@H](N)C(=O)O)CCC1(c2ccc3[nH]nnc3c2)CCC1 (stereo partly shown) [Compound 395] | < 1000 |
